Experimental data reported in patent publication US6180596A, “Methods of inhibiting phospholipase A2 and phospholipase A2 stimulator activities” (Wisconsin Alumni Research Foundation, priority 1998, dated 2001).
Entries after “also recorded” stand apart in the source; their conditions may differ.

System: elastase
Experiment: Degradation of rabbit lung Annexin I to 33 kDa(BP) by elastase, with and without PMSF
Assay type: biochemical
Conditions: PMSF present in the reaction solution; concentration not given; substrate rabbit lung Annexin I

O=S(=O)(F)Cc1ccccc1 [PMSF, phenylmethyl sulfonyl fluoride]
inhibition of the proteolytic hydrolysis of Annexin I catalyzed by elastase: totally inhibited; also recorded: prevented Annexin I degradation
